Measured values as given in ChEMBL document CHEMBL5665443, “Enzyme Inhibitor Single Concentration assay results for EUbOPEN Chemogenomics Library” (2024).

What was measured:
Settings in all cases: Hit No
[1] = target: Methyl-CpG-binding domain protein 4 (Homo sapiens) (UniProt O95243);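 further: MBD4 activity read as fluorescence at 594 nm from cleavage and release of a quenched duplex DNA oligonucleotide, with APE1 coupled to incise the strand and raise turnover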
Description: Inhibition of MBD4 by quantifying inhibition of MBD4-mediated cleavage and dissociation of quenched duplex DNA oligonucleotides, measured as fluorescence at 594 nm. To generate a functional strand incision and increase turn-over this assay is coupled to APE1.

[2] = target: T1, Endonuclease 8-like 2 (Homo sapiens) (UniProt Q969S2);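 further: fluorescence at 594 nm reports NEIL2 cutting and release of a quenched double-stranded DNA oligo substrate, reduced signal read as inhibition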
T1 sequence (whole entry): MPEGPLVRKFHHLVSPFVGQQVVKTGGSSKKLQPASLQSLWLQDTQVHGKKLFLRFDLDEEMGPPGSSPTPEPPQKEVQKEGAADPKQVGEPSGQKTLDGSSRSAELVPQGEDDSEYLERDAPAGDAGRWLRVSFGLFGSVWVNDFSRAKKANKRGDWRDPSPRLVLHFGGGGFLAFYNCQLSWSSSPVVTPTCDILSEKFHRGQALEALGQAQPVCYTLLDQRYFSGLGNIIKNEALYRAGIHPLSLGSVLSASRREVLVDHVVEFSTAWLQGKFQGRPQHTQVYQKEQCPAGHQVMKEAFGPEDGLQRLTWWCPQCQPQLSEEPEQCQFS
Description: Inhibition of NEIL2 by quantifying inhibition of NEIL2-mediated cleavage and dissociation of quenched duplex DNA oligonucleotides, measured as fluorescence at 594 nm.

[3] = target: T2, Endonuclease III-like protein 1 (Homo sapiens) (UniProt P78549);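 further: enzyme assay tracking NTHL1 cutting and release of a quenched double-stranded DNA oligo substrate, read as fluorescence at 594 nm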
T2 sequence (whole entry): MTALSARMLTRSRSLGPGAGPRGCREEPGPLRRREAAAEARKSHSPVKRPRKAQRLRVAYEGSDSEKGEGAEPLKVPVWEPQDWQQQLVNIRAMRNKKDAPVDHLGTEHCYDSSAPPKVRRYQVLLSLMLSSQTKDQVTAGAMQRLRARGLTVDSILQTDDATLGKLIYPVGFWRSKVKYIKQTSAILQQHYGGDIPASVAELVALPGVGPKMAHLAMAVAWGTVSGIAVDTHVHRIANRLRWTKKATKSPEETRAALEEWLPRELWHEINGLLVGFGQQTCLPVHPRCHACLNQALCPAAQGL
Description: Inhibition of NTHL1 by quantifying inhibition of NTHL1-mediated cleavage and dissociation of quenched duplex DNA oligonucleotides, measured as fluorescence at 594 nm.

[4] = target: N-glycosylase/DNA lyase (Homo sapiens) (UniProt O15527);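 further: OGG1 cleavage of a quenched duplex DNA oligonucleotide, coupled to APE1 for strand incision, read as fluorescence at 594 nm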
N-glycosylase/DNA lyase (Homo sapiens), sequence (O15527 whole entry): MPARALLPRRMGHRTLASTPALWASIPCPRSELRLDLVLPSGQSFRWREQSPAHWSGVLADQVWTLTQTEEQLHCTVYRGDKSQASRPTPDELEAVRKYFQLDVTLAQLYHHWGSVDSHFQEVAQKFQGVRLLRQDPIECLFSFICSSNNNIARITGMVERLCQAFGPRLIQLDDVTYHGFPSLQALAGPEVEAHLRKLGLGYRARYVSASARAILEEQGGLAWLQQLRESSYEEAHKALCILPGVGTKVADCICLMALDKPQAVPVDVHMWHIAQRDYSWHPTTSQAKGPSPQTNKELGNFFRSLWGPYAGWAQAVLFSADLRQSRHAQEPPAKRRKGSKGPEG
Description: Inhibition of OGG1 by quantifying inhibition of OGG1-mediated cleavage and dissociation of quenched duplex DNA oligonucleotides, measured as fluorescence at 594 nm. To generate a functional strand incision and increase turn-over this assay is coupled to APE1.

[5] = target: T3, Single-strand selective monofunctional uracil DNA glycosylase (Homo sapiens) (UniProt Q53HV7);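 further: enzymatic SMUG1 assay coupled with APE1, reading fluorescence at 594 nm released when a quenched double-stranded DNA oligonucleotide substrate is cleaved and separated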
T3 sequence (whole entry): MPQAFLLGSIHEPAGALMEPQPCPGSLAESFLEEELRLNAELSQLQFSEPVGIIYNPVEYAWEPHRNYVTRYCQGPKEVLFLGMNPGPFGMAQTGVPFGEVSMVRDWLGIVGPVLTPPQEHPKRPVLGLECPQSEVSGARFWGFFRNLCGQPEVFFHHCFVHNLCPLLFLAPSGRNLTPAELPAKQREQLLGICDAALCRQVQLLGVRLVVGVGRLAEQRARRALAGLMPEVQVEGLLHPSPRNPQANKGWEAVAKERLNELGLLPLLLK
Description: Inhibition of SMUG1 by quantifying inhibition of SMUG1-mediated cleavage and dissociation of quenched duplex DNA oligonucleotides, measured as fluorescence at 594 nm. To generate a functional strand incision and increase turn-over this assay is coupled to APE1.

[6] = target: Uracil-DNA glycosylase (Homo sapiens) (UniProt P13051);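 further: UNG excision on a quenched double-stranded DNA oligo probe, with APE1 added for strand incision and turnover, read as fluorescence at 594 nm as strands separate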
Uracil-DNA glycosylase (Homo sapiens), sequence (P13051 whole entry): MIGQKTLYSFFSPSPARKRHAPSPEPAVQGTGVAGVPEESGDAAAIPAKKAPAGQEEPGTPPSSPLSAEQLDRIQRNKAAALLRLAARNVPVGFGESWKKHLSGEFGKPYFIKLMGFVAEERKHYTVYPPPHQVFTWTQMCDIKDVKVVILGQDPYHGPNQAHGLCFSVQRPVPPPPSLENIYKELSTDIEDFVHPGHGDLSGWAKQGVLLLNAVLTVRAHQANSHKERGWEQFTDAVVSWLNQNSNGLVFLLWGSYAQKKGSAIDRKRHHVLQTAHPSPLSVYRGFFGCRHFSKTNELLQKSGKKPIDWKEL
Description: Inhibition of UNG by quantifying inhibition of UNG-mediated cleavage and dissociation of quenched duplex DNA oligonucleotides, measured as fluorescence at 594 nm. To generate a functional strand incision and increase turn-over this assay is coupled to APE1.

[7] = target: G/T mismatch-specific thymine DNA glycosylase (Homo sapiens) (UniProt Q13569);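 further: human TDG cleavage of quenched duplex DNA oligonucleotides coupled to APE1, strand release read as fluorescence at 594 nm, inhibition of TDG activity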
G/T mismatch-specific thymine DNA glycosylase (Homo sapiens), sequence (Q13569 whole entry): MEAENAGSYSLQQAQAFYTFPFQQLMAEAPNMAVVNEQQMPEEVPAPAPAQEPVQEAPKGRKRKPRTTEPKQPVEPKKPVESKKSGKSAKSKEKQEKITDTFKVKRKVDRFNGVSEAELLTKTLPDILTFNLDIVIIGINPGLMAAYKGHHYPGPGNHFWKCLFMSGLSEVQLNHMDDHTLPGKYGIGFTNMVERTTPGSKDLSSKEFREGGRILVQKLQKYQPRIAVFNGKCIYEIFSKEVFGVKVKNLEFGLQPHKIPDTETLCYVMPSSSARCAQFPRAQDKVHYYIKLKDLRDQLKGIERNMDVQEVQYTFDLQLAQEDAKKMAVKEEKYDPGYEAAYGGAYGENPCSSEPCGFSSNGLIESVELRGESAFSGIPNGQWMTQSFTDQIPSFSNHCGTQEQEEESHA
Description: Inhibition of TDG by quantifying inhibition of TDG-mediated cleavage and dissociation of quenched duplex DNA oligonucleotides, measured as fluorescence at 594 nm. To generate a functional strand incision and increase turn-over this assay is coupled to APE1.

[8] = target: Endonuclease 8-like 1 (Homo sapiens) (UniProt Q96FI4);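 further: fluorescence at 594 nm from quenched duplex DNA oligonucleotides released by NEIL1 cleavage and strand separation, reported as reduction of this enzyme activity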
Endonuclease 8-like 1 (Homo sapiens), sequence (Q96FI4 whole entry): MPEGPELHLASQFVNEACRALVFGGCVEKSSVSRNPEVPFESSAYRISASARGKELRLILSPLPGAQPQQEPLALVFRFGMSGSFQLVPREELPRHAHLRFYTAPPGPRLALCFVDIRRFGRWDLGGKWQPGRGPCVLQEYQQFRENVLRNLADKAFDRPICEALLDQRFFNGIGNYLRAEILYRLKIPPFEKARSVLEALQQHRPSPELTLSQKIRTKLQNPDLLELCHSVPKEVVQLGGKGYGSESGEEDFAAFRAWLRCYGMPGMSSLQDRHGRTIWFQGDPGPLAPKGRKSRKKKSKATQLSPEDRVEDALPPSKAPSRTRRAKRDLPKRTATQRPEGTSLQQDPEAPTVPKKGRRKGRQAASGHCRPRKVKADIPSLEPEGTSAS
Description: Inhibition of NEIL1 by quantifying inhibition of NEIL1-mediated cleavage and dissociation of quenched duplex DNA oligonucleotides, measured as fluorescence at 594 nm.

Methyl-CpG-binding domain protein 4 (Homo sapiens), sequence (O95243 whole entry, the tested form may be a part): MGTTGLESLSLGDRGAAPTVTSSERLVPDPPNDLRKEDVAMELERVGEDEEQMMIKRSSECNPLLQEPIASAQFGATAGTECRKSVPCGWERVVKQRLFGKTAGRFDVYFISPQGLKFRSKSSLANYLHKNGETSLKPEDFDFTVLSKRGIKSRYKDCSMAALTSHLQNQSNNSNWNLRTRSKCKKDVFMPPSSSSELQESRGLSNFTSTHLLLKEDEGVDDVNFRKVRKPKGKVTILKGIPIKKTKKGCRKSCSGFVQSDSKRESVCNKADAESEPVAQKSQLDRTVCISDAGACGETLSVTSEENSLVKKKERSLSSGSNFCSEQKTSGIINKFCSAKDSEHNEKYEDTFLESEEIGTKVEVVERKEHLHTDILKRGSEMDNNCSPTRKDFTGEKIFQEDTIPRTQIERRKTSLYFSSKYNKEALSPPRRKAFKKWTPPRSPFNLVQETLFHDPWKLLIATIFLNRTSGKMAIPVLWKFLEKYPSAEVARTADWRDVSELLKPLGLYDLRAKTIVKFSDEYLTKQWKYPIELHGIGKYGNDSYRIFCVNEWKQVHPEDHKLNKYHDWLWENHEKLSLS

Row | Compound | inhibition ([1]; Compound Concentration 10.0 uM) | inhibition ([2]; Compound Concentration 10.0 uM) | inhibition ([3]; Compound Concentration 10.0 uM) | inhibition ([4]; Compound Concentration 10.0 uM) | inhibition ([5]; Compound Concentration 10.0 uM) | inhibition ([6]; Compound Concentration 10.0 uM) | inhibition ([7]; Compound Concentration 10.0 uM) | inhibition ([1]; Compound Concentration 1.0 uM) | inhibition ([2]; Compound Concentration 1.0 uM) | inhibition ([3]; Compound Concentration 1.0 uM) | inhibition ([4]; Compound Concentration 1.0 uM) | inhibition ([5]; Compound Concentration 1.0 uM) | inhibition ([7]; Compound Concentration 1.0 uM) | inhibition ([6]; Compound Concentration 1.0 uM) | inhibition ([8]; Compound Concentration 1.0 uM) | inhibition ([8]; Compound Concentration 10.0 uM)
1 | CCCCCCCCCCCCC/C=C/[C@@H](O)[C@@H](N)COP(=O)([O-])OCC[N+](C)(C)C | -8.69% | -4.94% | -8.51% | 5.72% | -8.04% | -1% | – | – | – | – | – | – | – | – | – | –
2 | CCOC(=O)c1ccc(CN(Cc2ccc(-c3cccc(S(C)(=O)=O)c3)cc2)S(=O)(=O)c2c(C)cc(C)cc2C)o1 | 46% | -7.63% | -3.26% | 0.574% | 14.1% | 0.52% | 35% | – | – | – | – | – | – | – | – | –
3 | CCCCN(CCCC)C(=O)CN1C[C@H](c2cc(OC)c3c(c2)OCO3)[C@@H](C(=O)O)[C@@H]1CC(C)(C)CCC | – | – | – | – | – | – | – | 62.3% | -9.42% | 11.2% | 14.6% | 14.3% | 54.3% | -0.907% | – | –
4 | O=C1NC(c2ccccn2)Sc2ccccc21 (centres undefined) | 55.9% | -4.83% | -7.2% | -4.34% | 8.24% | -1.67% | 34% | – | – | – | – | – | – | – | – | –
5 | Cc1n[nH]c2ncc(C(=O)N3CCC[C@H]3c3ccc(Cl)cc3)cc12 | – | – | – | – | – | – | – | 9.29% | – | 7.06% | -6.69% | 8.72% | 31.7% | -1.69% | -3.69% | –
6 | COc1ccc(CC[C@@H](OC(=O)[C@@H]2CCCCN2C(=O)[C@H](c2cc(OC)c(OC)c(OC)c2)C2CCCCC2)c2cccc(OCCN3CCOCC3)c2)cc1OC | 43.3% | – | -7.86% | -4.59% | 4.21% | 0.833% | 31.2% | – | – | – | – | – | – | – | – | –
7 | COc1cccc(CNC(=O)c2nc3scc(CN(C)Cc4ccccc4)c3c(=O)[nH]2)c1 | 59.5% | – | -9.83% | 4.36% | 12.8% | 2.11% | 43.2% | – | – | – | – | – | – | – | – | -6.05%
8 | O=C(O)[C@@H]1[C@@H](Cn2nnc3ccccc3c2=O)CC[C@H]1C(=O)c1ccc(OCCC2CCOCC2)cc1 | 57.8% | – | -5.23% | 7.75% | 18.6% | 2.54% | 49.2% | – | – | – | – | – | – | – | – | –
9 | O=C(Nc1cccnn1)N1CCC(=Cc2cccc(Oc3ccc(C(F)(F)F)cn3)c2)CC1 | 65.2% | -7.12% | 5.94% | -7.84% | 17% | 0.719% | 59.6% | – | – | – | – | – | – | – | – | –
10 | O=C(c1ccc(F)cc1)N1CC(COc2ccc(Br)cc2)(C(=O)O)C1 | – | – | – | – | – | – | – | 67.1% | – | 0.685% | -9.75% | 15.2% | 52.8% | 0.879% | -7.26% | –
11 | CN(C)C(=O)Cn1cc(-c2nc(C3(c4ccc(-c5cnc(N)nc5)cc4)CC3)no2)cn1 | 22.8% | 0.0213% | -5.89% | 28.7% | 11.1% | 1.06% | 43.7% | – | – | – | – | – | – | – | – | –
12 | CN([C@@H]1CCc2c(CC(=O)O)c3ccccc3n2C1)S(=O)(=O)c1ccc(F)cc1 | 28.2% | -4.06% | 10.6% | 5.88% | 15.5% | 2.73% | 9.01% | – | – | – | – | – | – | – | – | –
13 | COc1c(OCCCN2CCOCC2)ccc2c1N=C(NC(=O)c1cnc(N)nc1)N1CCN=C21 | – | – | – | – | – | – | – | -2.38% | – | 4.97% | 5.38% | 20% | 26.4% | -3.63% | -8.98% | –
14 | CCc1cc(Nc2nccc(-c3c(-c4ccc(OC)c(C(=O)Nc5c(F)cccc5F)c4)nc4ccccn34)n2)c(OC)cc1N1CCC(N2CCN(S(C)(=O)=O)CC2)CC1 | – | – | – | – | – | – | – | 32.9% | – | -1.31% | 10.7% | 21.4% | 50.7% | 0.56% | -8.84% | –
15 | CNC(=O)COc1cc2cc(Nc3nc(N4CCC(C(=O)N(C)C)CC4)ncc3Cl)cc(OC)c2n(C)c1=O | 50.6% | -6.1% | -0.63% | 4.56% | 3.52% | 0.116% | 86.8% | – | – | – | – | – | – | – | – | –
16 | COc1ccc2c(c1)O[C@@H](c1ccc(OC)c(OC)c1)C[C@H]2NC(=O)C1(c2ccc3c(c2)OC(F)(F)O3)CC1 | 35.4% | -1.51% | -7.86% | -6.31% | -5.34% | -6.88% | 25.6% | – | – | – | – | – | – | – | – | –
17 | C[C@H](c1ccc(F)cc1)N(Cc1ccc(Cl)c(C(=O)O)c1)C(=O)c1cnc2ccccc2c1 | 52.3% | -8.14% | -7.86% | 8.39% | 16.2% | 1.41% | 31.5% | – | – | – | – | – | – | – | – | –
18 | CN(C)C(=O)/C(C#N)=C/c1ccc(-c2nc3cnc4c(ccn4C)c3n2C2CCCCC2)o1 | – | – | – | – | – | – | – | 95% | -3.8% | 0.785% | -5.75% | 2.69% | 49.4% | -0.285% | – | –
19 | O=C(NCCS(=O)(=O)c1ccc(C(F)(F)F)cn1)c1ccc(Cl)cc1 | 55.1% | 1.3% | -0.63% | -0.41% | 13.1% | 0.131% | 97.2% | – | – | – | – | – | – | – | – | –
20 | CC(C)(C)OC(=O)N1CCCC1CNC1CCC(c2cc(F)ccc2F)(S(=O)(=O)c2ccc(Cl)cc2)CC1 (centres undefined) | 45.5% | – | -1.29% | 4.85% | 19.7% | 1.86% | 17.3% | – | – | – | – | – | – | – | – | –
21 | CSc1cccnc1N1CCN(Cc2nc3ccccc3[nH]2)CC1 | 54.7% | – | -5.89% | 6.57% | 6.69% | 0.535% | 19.8% | – | – | – | – | – | – | – | – | –
22 | Cc1cnc(Nc2ccc(F)cc2Cl)nc1-c1c[nH]c(C(=O)N[C@H](CO)c2cccc(Cl)c2)c1 | – | – | – | – | – | – | – | -4.19% | – | -6.19% | -8.42% | 23.9% | 46.4% | 2.73% | -0.127% | –
